From US20250327074A1 (SHAOXING INSTITUTE, ZHEJIANG UNIVERSITY, priority 2024, published 2025)

Each compound was assayed on TCG codon, mammalian cells (assay: TCG codon recoding efficiency of all amino acids (Table 1)). Details: TCG codon recoding of the unnatural amino acid with the aaRS and mutation of the same table line; class symbols.
Assay type: cell-based
Excerpt: Specific details are shown in Table 1 below, where “wt” represents the wild-type aminoacyl-tRNA synthetase, “mutation sites” indicate the positions and types of mutations related to specific unnatural amino acid binding on the wild-type aminoacyl-tRNA synthetase, and “unnatural amino acid” represents the unnatural amino acid corresponding to the mutated aminoacyl-tRNA synthetase. In the unnatural amino acid encoding efficiency, “+” indicates a recoding efficiency greater than 40%, “++” greater than 60%, and “+++” greater than 80%.
Accordingly, this application compiles all amino acids reported in the literature that are recognized by orthogonal aminoacyl-tRNA synthetases in mammalian systems and evaluates their recoding efficiency using the TCG codon as an example.

SMILES | Recoding rate (%)
N#Cc1ccc(C[C@H](N)C(=O)O)cc1 [compound 368] | +++ (“+++” greater than 80%)
N[C@@H](Cc1ccc(C(=O)c2ccc(C(F)(F)F)cc2)cc1)C(=O)O [compound 345] | ++ (“++” greater than 60%)
CC(SCCOC(=O)NCC(N)C(=O)O)c1cc2c(cc1[N+](=O)[O-])OCO2 (mixture of isomers) [compound 276] | + (“+” indicates a recoding efficiency greater than 40%)
C=CCSC[C@H](N)C(=O)O [compound 280] | + (“+” indicates a recoding efficiency greater than 40%)
N[C@@H](Cc1ccc(C(=O)CF)cc1)C(=O)O [compound 358] | +++ (“+++” greater than 80%)
N[C@@H](CSCc1ccccc1[N+](=O)[O-])C(=O)O [compound 401] | +++ (“+++” greater than 80%)
N[C@@H](Cc1c[nH]c2ccc(Br)cc12)C(=O)O [compound 414] | + (“+” indicates a recoding efficiency greater than 40%)
N[C@@H](Cc1ccc2ncccc2c1)C(=O)O [compound 230] | + (“+” indicates a recoding efficiency greater than 40%)
N[C@@H](Cc1ccc(C(=O)c2ccc(Br)cc2)cc1)C(=O)O [compound 344] | ++ (“++” greater than 60%)
C#CCCCSC[C@H](N)C(=O)O [compound 385] | ++ (“++” greater than 60%)
CC(OC(=O)CC(N)C(=O)O)c1ccccc1[N+](=O)[O-] (mixture of isomers) [compound 262] | ++ (“++” greater than 60%)
C=CCCCCSC[C@H](N)C(=O)O [compound 378] | ++ (“++” greater than 60%)
N[C@@H](Cc1cn(Cc2ccccc2[N+](=O)[O-])cn1)C(=O)O [compound 254] | ++ (“++” greater than 60%)
CC(OC(=O)NCSCC(N)C(=O)O)c1cc2c(cc1[N+](=O)[O-])OCO2 (mixture of isomers) [compound 270] | + (“+” indicates a recoding efficiency greater than 40%)
CC(SCC(N)C(=O)O)c1cc2c(cc1[N+](=O)[O-])OCO2 (mixture of isomers) [compound 269] | + (“+” indicates a recoding efficiency greater than 40%)
N[C@@H](CCCCS)C(=O)O [compound 395] | ++ (“++” greater than 60%)
C#CCn1cc(C[C@H](N)C(=O)O)c2ccccc21 [compound 326] | ++ (“++” greater than 60%)
N[C@@H](Cc1ccc2ccccc2c1)C(=O)O [compound 249] | + (“+” indicates a recoding efficiency greater than 40%)
CCCCCC[C@H](N)C(=O)O [compound 376] | ++ (“++” greater than 60%)
C=CCCC[C@H](N)C(=O)O [compound 406] | +++ (“+++” greater than 80%)
C=CC[S+]([O-])C[C@@H](N)C(=O)O (stereo partly shown) [compound 405] | +++ (“+++” greater than 80%)
[N-]=[N+]=NCCC(=O)Nc1ccc(C[C@H](N)C(=O)O)cc1 [compound 350] | +++ (“+++” greater than 80%)

SMILES | Recoding rate (%)
CN(C)c1ccc(-c2oc(N)nc2C(=O)O)cc1 [compound 279] | ++ (“++” greater than 60%)
CCCCCCCC#Cc1ccc(C[C@H](N)C(=O)O)cc1 [compound 313] | + (“+” indicates a recoding efficiency greater than 40%)
N[C@@H](CCC(=O)OCc1cc2c(cc1[N+](=O)[O-])OCO2)C(=O)O [compound 264] | ++ (“++” greater than 60%)
N[C@@H](CNc1ccc2ccccc2c1)C(=O)O [compound 392] | ++ (“++” greater than 60%)
N[C@@H](CCc1cc(=O)oc2cc(O)ccc12)C(=O)O [compound 347] | ++ (“++” greater than 60%)
CCCCCC#Cc1ccc(C[C@H](N)C(=O)O)cc1 [compound 311] | +++ (“+++” greater than 80%)
N[C@@H](Cc1ccc(OCCCl)cc1)C(=O)O [compound 364] | ++ (“++” greater than 60%)
CCSCCCC[C@H](N)C(=O)O [compound 393] | ++ (“++” greater than 60%)
N[C@@H](Cc1ccc([N+](=O)[O-])cc1)C(=O)O [compound 367] | +++ (“+++” greater than 80%)
CCCCCCCCSC[C@H](N)C(=O)O [compound 384] | ++ (“++” greater than 60%)
COc1ccc2c(C[C@H](N)C(=O)O)c[nH]c2c1OC [compound 296] | +++ (“+++” greater than 80%)
C#CCCC(=O)Nc1ccc(C[C@H](N)C(=O)O)cc1 [compound 351] | +++ (“+++” greater than 80%)
N[C@@H](Cc1cccc(N2CCCC2)c1)C(=O)O [compound 289] | ++ (“++” greater than 60%)
N[C@@H](Cc1ccc(OCC2CCCC2)cc1)C(=O)O [compound 238] | ++ (“++” greater than 60%)
C=CCC(=O)Nc1ccc(C[C@H](N)C(=O)O)cc1 [compound 354] | +++ (“+++” greater than 80%)
CC=CCOC[C@H](N)C(=O)O [compound 408] | +++ (“+++” greater than 80%)
COc1cccc2c(C[C@H](N)C(=O)O)c[nH]c12 [compound 303] | +++ (“+++” greater than 80%)
N[C@@H](Cc1ccc(Oc2ccc(O)cc2)cc1)C(=O)O [compound 231] | ++ (“++” greater than 60%)
N[C@@H](Cc1ccc(C(=O)c2cccc(F)c2)cc1)C(=O)O [compound 340] | ++ (“++” greater than 60%)
N[C@@H](CCCNC(=O)NCc1ccccc1[N+](=O)[O-])C(=O)O [compound 375] | ++ (“++” greater than 60%)
CC(OC(=O)NCSCCC(N)C(=O)O)c1cc2c(cc1[N+](=O)[O-])OCO2 (mixture of isomers) [compound 271] | + (“+” indicates a recoding efficiency greater than 40%)

Same assay, conditions: TCG codon recoding of the unnatural amino acid with the aaRS and mutation of the same table line; numeric values

SMILES | Recoding rate (%)
N[C@@H](Cc1ccc2ccccc2c1)C(=O)O [compound 307] | 66%
COc1ccc(C[C@H](N)C(=O)O)cc1 [compound 332] | 73%
C=Cn1cc(C[C@H](N)C(=O)O)c2ccccc21 [compound 325] | 59%
C#CCCCCSC[C@H](N)C(=O)O [compound 386] | 77%
N#Cc1cccc2c(C[C@H](N)C(=O)O)c[nH]c12 [compound 302] | 69%
Cn1cncc1C[C@H](N)C(=O)O [compound 253] | 85%
N[C@@H](Cc1cccs1)C(=O)O [compound 258] | 72%
Cc1cccc2c(C[C@H](N)C(=O)O)c[nH]c12 [compound 300] | 69%
CCCCCCSC[C@H](N)C(=O)O [compound 382] | 87%
N[C@@H](Cc1c[nH]c2ccc(O)cc12)C(=O)O [compound 411] | 75%
N[C@@H](Cc1cc(Br)ccc1Cl)C(=O)O [compound 245] | 75%
N[C@@H](Cc1ccc(OS(=O)(=O)O)cc1)C(=O)O [compound 335] | 85%
CCCCCCCC[C@H](N)C(=O)O [compound 398] | 85%
COc1ccc2c(C[C@H](N)C(=O)O)c[nH]c2c1 [compound 327] | 80%
C=CCOc1ccc(C[C@H](N)C(=O)O)cc1 [compound 241] | 83%
C=CCCCC[C@H](N)C(=O)O [compound 407] | 81%
N[C@@H](Cc1ccc2c(c1)C(=O)C1C=CC=CC1N2)C(=O)O (stereo partly shown) [compound 277] | 63%
CN(C)c1cccc2c(S(=O)(=O)NC[C@H](N)C(=O)O)cccc12 [compound 390] | 73%
N[C@@H](Cc1csc2ccccc12)C(=O)O [compound 299] | 84%
CCCCCSC[C@H](N)C(=O)O [compound 381] | 83%

SMILES | Recoding rate (%)
N#Cc1cccc(C[C@H](N)C(=O)O)c1 [compound 235] | 74%
CCCCCCC[C@H](N)C(=O)O [compound 397] | 92%
CC(=O)c1ccc(C[C@H](N)C(=O)O)cc1 [compound 305] | 92%
Cc1ccc2[nH]cc(C[C@H](N)C(=O)O)c2c1 [compound 412] | 37%
N[C@@H](CC(=O)OCc1ccccc1)C(=O)O [compound 266] | 75%
N#Cc1cccc(C[C@H](N)C(=O)O)c1 [compound 306] | 75%
COc1ccc(C[C@H](N)C(=O)O)cc1 [compound 400] | 92%
N[C@@H](Cc1cccnc1)C(=O)O [compound 247] | 83%
N[C@@H](CC(=O)OCc1ccccc1[N+](=O)[O-])C(=O)O [compound 261] | 23%
N#Cc1ccc(C[C@H](N)C(=O)O)cc1 [compound 330] | 45%
N[C@@H](Cc1cncs1)C(=O)O [compound 257] | 91%
[N-]=[N+]=Nc1ccc(C[C@H](N)C(=O)O)cc1 [compound 360] | 79%
N[C@@H](Cc1c[nH]c2ncccc12)C(=O)O [compound 251] | 22%
N[C@@H](Cc1c[nH]c2cccc(F)c12)C(=O)O [compound 418] | 82%
COc1ccc(C[C@H](N)C(=O)O)cc1 [compound 369] | 84%
N[C@@H](Cc1ccco1)C(=O)O [compound 260] | 43%
N[C@@H](Cc1c[nH]c2c(F)cccc12)C(=O)O [compound 250] | 74%
COc1ccc(C[C@H](N)C(=O)O)cc1 [compound 308] | 68%
Nc1cc(C[C@H](N)C(=O)O)ccc1O [compound 361] | 50%
